The record followed here is patent publication US20090233960A1, “Kinase Inhibitors” (Devgen NV, priority 2005, published 2009).

“Also recorded” adds a separate entry of the source.

T1 sequence (O75116 11-552 limits assumed): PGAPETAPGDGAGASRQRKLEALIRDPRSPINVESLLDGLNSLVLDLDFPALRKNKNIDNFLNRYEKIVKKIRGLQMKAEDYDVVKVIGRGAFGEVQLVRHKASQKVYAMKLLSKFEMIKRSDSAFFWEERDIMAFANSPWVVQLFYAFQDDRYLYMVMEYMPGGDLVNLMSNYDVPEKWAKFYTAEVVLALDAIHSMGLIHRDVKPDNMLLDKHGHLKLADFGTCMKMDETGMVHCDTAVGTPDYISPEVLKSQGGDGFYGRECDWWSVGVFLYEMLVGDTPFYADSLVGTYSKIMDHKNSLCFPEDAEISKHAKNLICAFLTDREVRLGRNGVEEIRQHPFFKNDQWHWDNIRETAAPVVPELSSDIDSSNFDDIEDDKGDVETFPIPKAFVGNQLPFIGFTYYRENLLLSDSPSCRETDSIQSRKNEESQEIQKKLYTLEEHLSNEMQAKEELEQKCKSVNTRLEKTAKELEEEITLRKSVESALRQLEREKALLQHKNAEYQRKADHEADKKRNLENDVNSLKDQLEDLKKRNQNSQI

One test deals with spontaneous hypertensive rats (SHRs). Put plainly: Activity on hypertension in spontaneous hypertensive rats (SAP and heart rate). Type of test: in vivo, rat. The following applies: SHR, 10 mg/kg, single oral dose. The protocol: The efficiency of compounds of the invention to reduce and/or treat hypertension in an acute model was evaluated using spontaneous hypertensive rats (SHRs).
Compounds were administered as one single dose to SHR. Systolic arterial pressure (SAP) and heart rate were recorded before (−1 hr) and 1, 3, 5, 7, and 24 hours after oral administration of vehicle or test compound.
A reduction in SAP by 10 percent or more (>10%), or a decrease in heart rate by 20 percent or more (>20%), relative to baseline was considered significant.
In the case of `C[C@@H](N)[C@H]1CC[C@H](C(=O)Nc2ccncc2)CC1` [Compound Y-27632], the “hypotensive response (systolic arterial pressure)” value is “not significant; also recorded: completely inactive”.

The next test concerns the target T1, human ROCKI/ROCKII mix (Homo sapiens, UniProt O75116).
T1 construct: purchased Upstate Biotechnology 14451
The test can be described thus: ROCK inhibition, fluorescence polarization (FP) IMAP assay. In kind it is biochemical. The following applies: 10 μM ATP. Here is the method: The compounds of the invention were tested for inhibition of human ROCKI/ROCKII mix.
The inhibition assays were performed with a fluorescence polarization (FP) assay using the commercially available ROCK IMAP Kit from Molecular Devices (Product ID. No. R8093) essentially in accordance with the protocol supplied by the manufacturer. The S6 ribosomal protein-derived substrate used was (Fl)-[…], also obtained from Molecular Devices (Product ID No. R7184). The enzyme mix ROCKI/ROCKII was obtained from Upstate Biotechnology (Product ID No 14451).
In summary, all compounds were screened in the wells of a 384 well plate for enzymatic inhibition with concentrations varying from 100 μM to 0.3 nM using a stepwise three (or two)-fold dilution.
To perform the assay, 1 μl of a solution of the compound to be tested in DMSO (at each concentration) was added to 2 μl of a solution of the enzyme in 10 mM Tris-HCl, 10 mM MgCl2, 0.1% BSA, 0.05% NaN3, pH 7,2. The final concentration of the enzyme was 2.6 nM.
After incubating for 30 minutes at room temperature, 2 μl of a mixture of ATP and the protein substrate in 10 mM Tris-HCl, 10 mM MgCl2, 0.1% BSA, 0.05% NaN3, pH 7.2 was added. The final concentration of the ATP was 10 μM and final concentration of protein substrate was 0.2 μM.
After incubating for 60 minutes at room temperature, 12 μl of the IMAP Binding Solution (mix of the IMAP Binding Buffer A (1×) and the IMAP Binding Reagent (from the ROCK IMAP kit)) was added.
The mixture thus obtained (total volume: 17 μl) was incubated for 60 minutes at room temperature, upon which the fluorescence polarization was measured using an automated plate reader (Perkin Elmer, Model Envision 2100-0010 HTS) with FP filters: excitation filter FITC FP 480 and emission filters FITC FP P-pol 535 and FITC FP S-pol 535 (Perkin-Elmer). The results were fitted to a curve using the XL-Fit algorithm and IC50 values were calculated for each fitted curve, again using the XL-Fit algorithm.
For orientation: Fluorescence polarisation rises when a labelled molecule tumbles more slowly, as on binding a larger partner.
Molecule `CC(N)c1ccc(C(=O)Nc2ccncc2)cc1O` (stereo not drawn) [Compound 1, 4-(1-amino-ethyl)-3-hydroxy-N-pyridin-4-yl-benzamide] had an IC50 of 0.5 to 5 µM.
In the case of `CC(N)c1ccc(C(=O)Nc2ccncc2)cc1[N+](=O)[O-]` (stereo not drawn) [Compound 2, 4-(1-amino-ethyl)-3-nitro-N-pyridin-4-yl-benzamide], the IC50 was 0.05 to 0.5 µM.
The molecule `CC(N)c1ccc(C(=O)Nc2ccncc2)cc1N` (stereo not drawn) [Compound 3, 3-amino-4-(1-amino-ethyl)-N-pyridin-4-yl-benzamide] came in with an IC50 of 0.5 to 5 µM.
For `CC(N)c1ccc(C(=O)Nc2ccncc2)cc1-c1ccc(Cl)cc1` (stereo not drawn) [Compound 4, 6-(1-amino-ethyl)-4′-chloro-biphenyl-3-carboxylic acid pyridin-4-ylamide], the IC50 is less than 0.05 µM.
In turn, `CC(N)c1ccc(C(=O)Nc2ccncc2)cc1-c1cccs1` (stereo not drawn) [Compound 5, 4-(1-amino-ethyl)-N-pyridin-4-yl-3-thiophen-2-yl-benzamide] displayed an IC50 of less than 0.05 µM.
Regarding `COc1ccc(-c2cc(C(=O)Nc3ccncc3)ccc2C(C)N)cc1` (stereo not drawn) [Compound 6, 6-(1-amino-ethyl)-4′-methoxy-biphenyl-3-carboxylic acid pyridin-4-ylamide], the IC50 fell in the range of 0.05 to 0.5 µM.
In turn, `CC(N)c1ccc(C(=O)Nc2ccncc2)cc1-c1ccoc1` (stereo not drawn) [Compound 7, 4-(1-amino-ethyl)-3-furan-3-yl-N-pyridin-4-yl-benzamide] displayed an IC50 of 0.05 to 0.5 µM.
Molecule `CC(N)c1ccc(C(=O)Nc2ccncc2)cc1OCCO` (stereo not drawn) [Compound 8, 4-(1-amino-ethyl)-3-(2-hydroxy-ethoxy)-N-pyridin-4-yl-benzamide] showed an IC50 of 0.5 to 5 µM.
`CC(N)c1ccc(C(=O)Nc2ccncc2)cc1OCCCO` (stereo not drawn) [Compound 9, 4-(1-amino-ethyl)-3-(3-hydroxy-propoxy)-N-pyridin-4-yl-benzamide] gave an IC50 of 0.5 to 5 µM.
Regarding `CC(N)c1ccc(C(=O)Nc2ccncc2)cc1OCCN` (stereo not drawn) [Compound 10, 3-(2-amino-ethoxy)-4-(1-amino-ethyl)-N-pyridin-4-yl-benzamide], the IC50 is 0.5 to 5 µM.
Turning to `CC(N)c1ccc(C(=O)Nc2ccncc2)cc1OCCCN` (stereo not drawn) [Compound 11, 4-(1-amino-ethyl)-3-(3-amino-propoxy)-N-pyridin-4-yl-benzamide], the IC50 fell in the range of 0.5 to 5 µM.
`CC(N)c1ccc(C(=O)Nc2ccncc2)cc1OCc1ccccc1` (stereo not drawn) [Compound 12, 4-(1-amino-ethyl)-3-benzyloxy-N-pyridin-4-yl-benzamide] yielded an IC50 of 0.05 to 0.5 µM.
As to `CC(N)c1ccc(C(=O)Nc2ccncc2)cc1NC(=S)Nc1ccccc1` (stereo not drawn) [Compound 13, 4-(1-amino-ethyl)-3-(3-phenyl-thioureido)-N-pyridin-4-yl-benzamide], the IC50 was 0.05 to 0.5 µM.
Consider `CC(N)c1ccc(C(=O)Nc2ccncc2)cc1NC(=O)Nc1ccccc1` (stereo not drawn) [Compound 14, 4-(1-amino-ethyl)-3-(3-phenyl-ureido)-N-pyridin-4-yl-benzamide], for which the half-inhibitory concentration (IC50) was in the range of 0.05 to 0.5 µM.
Regarding `CC(N)c1ccc(C(=O)Nc2ccncc2)cc1NCc1ccco1` (stereo not drawn) [Compound 16, 4-(1-amino-ethyl)-3-[(furan-2-ylmethyl)-amino]-N-pyridin-4-yl-benzamide], the IC50 was in the range of 0.05 to 0.5 µM.
For `CC(N)c1ccc(C(=O)Nc2ccncc2)cc1NC(=O)c1ccccc1` (stereo not drawn) [Compound 17, 4-(1-amino-ethyl)-3-benzoylamino-N-pyridin-4-yl-benzamide], the IC50 was in the range of 0.05 to 0.5 µM.
As to `CC(N)c1ccc(C(=O)Nc2ccncc2)cc1NC(=O)c1ccco1` (stereo not drawn) [Compound 18, furan-2-carboxylic acid [2-(1-amino-ethyl)-5-(pyridin-4-ylcarbamoyl)-phenyl]-amide], the IC50 was 0.05 to 0.5 µM.
For the molecule `COc1cccc(C(=O)Nc2cc(C(=O)Nc3ccncc3)ccc2C(C)N)c1` (stereo not drawn) [Compound 19, 4-(1-amino-ethyl)-3-(3-methoxy-benzoylamino)-N-pyridin-4-yl-benzamide], the IC50 is less than 0.05 µM.
The same measure, in the same setting: in the case of `CC(N)c1ccc(C(=O)Nc2ccncc2)cc1NC(=O)c1cccc(Cl)c1` (stereo not drawn) [Compound 20] it was 0.05 to 0.5 µM; in that of `COc1ccc(C(=O)Nc2cc(C(=O)Nc3ccncc3)ccc2C(C)N)cc1` (stereo not drawn) [Compound 21, 4-(1-Amino-ethyl)-3-(4-methoxy-benzoylamino)-N-pyridin-4-yl-benzamide], less than 0.05 µM; in that of `CC(N)c1ccc(C(=O)Nc2ccncc2)cc1NC(=O)c1ccc(Cl)cc1` (stereo not drawn) [Compound 22, 4-(1-Amino-ethyl)-3-(4-chloro-benzoylamino)-N-pyridin-4-yl-benzamide], 0.05 to 0.5 µM.
Still for that read-out and setting: then `CC(N)c1ccc(C(=O)Nc2ccncc2)cc1-c1cccc(Cl)c1` (stereo not drawn) [Compound 24, 6-(1-aminoethyl)-3′-chloro-N-pyridin-4-ylbiphenyl-3-carboxamide], with less than 0.05 µM; and `CC(N)c1ccc(C(=O)Nc2ccncc2)cc1-c1ccc(F)cc1` (stereo not drawn) [Compound 26, 6-(1-aminoethyl)-4′-fluoro-N-pyridin-4-ylbiphenyl-3-carboxamide], with less than 0.05 µM.
Take `CC(N)c1ccc(C(=O)Nc2ccncc2)cc1-c1ccc2ccccc2c1` (stereo not drawn) [Compound 32, 4-(1-aminoethyl)-3-(2-naphthyl)-N-pyridin-4-ylbenzamide]: the IC50 was less than 0.05 µM.
Turning to `C[C@@H](N)c1ccc(C(=O)Nc2ccncc2)cc1-c1cccs1` [Compound 103, 4-((R)-1-Amino-ethyl)-N-pyridin-4-yl-3-thiophen-2-yl-benzamide], the IC50 is less than 0.05 µM.
Regarding `C[C@H](N)c1ccc(C(=O)Nc2ccncc2)cc1-c1cccs1` [Compound 104, 4-((S)-1-Amino-ethyl)-N-pyridin-4-yl-3-thiophen-2-yl-benzamide], the IC50 lay in the range of 0.05 to 0.5 µM.

Usually IC50 stands for the concentration at which inhibition is half-maximal. Higher therefore signals lower potency.
